# Reference: US10842884B2, “Endosomolytic agents for gene therapy” (UCB Biopharma SRL, priority 2016, dated 2020)
# Structures can show the parent of a compound that is named as a salt.
# Key:
# [1] = tested on: Chinese Hamster Ovary (CHO) cells; assay: Transfection of CHO cells using lipopolyplexes, β-galactosidase reporter gene expression; format: cell-based
# From the text: Transfection of Chinese Hamster Ovary (CHO) Cells Using Lipopolyplexes
# Plasmid pEGlacZ containing the bacterial β-galactosidase gene under the control of the human cytomegalovirus immediate early promoter was constructed using standard molecular cloning techniques. The 7676 base pair (bp) plasmid was derived by cleavage of pGFP-N1 (Clontech) with HindIII and BclI to remove the reporter gene fragment. The β-galactosidase coding region from pSV-β-galactosidase (Promega) was then inserted via a HindIII to BamHI fragment. Plasmid DNA was then purified using an anion-exchange column (Qiagen Ltd). The average molecular weight per base pair was calculated to be 620.84 Da (310.5 Da for a monophosphorylated nucleotide). The amount of negative charge on the plasmid was then determined on the basis that a single negative charge is associated with each nucleotide.
# […] Lipid films were formed by rotary evaporation at 60° C. and further dried on a freeze drier overnight. Rehydration of the lipid film was performed by adding 4 mL of deionised water and […] 1M NaOH at 60° C. with vigorous agitation in the presence of […] diameter glass beads, taking care to maintain pH in the range 7.5 to 8.0, resulting in the formation of multi-lamellar vesicles (MLVs).
# Stock solutions of R26 peptide as a DNA condensing agent at 144 μg/ml and plasmid DNA at 60 μg/ml were prepared in de-ionized water. Equal volumes of each were mixed by adding the plasmid DNA drop-wise to the R26 solution with vortexing. The charge ratio of the polyplex was 3.9:1 (peptide positive charged residues to DNA negative charged phosphates).
# The polyplex preparation was diluted in 10 mM HEPES buffer pH 8 to 15 μg/ml DNA equivalent. […] Lipopolyplexes were formed by adding equal volumes of polyplex solution drop-wise to liposome suspension with vortexing.
# CHO cells were seeded into 24-wellplates at 100 000 cells per well in Opti-MEM (Gibco BRL) media containing 10% dialysed foetal calf serum (FCS, Gibco BRL) and maintained 37° C. in 5% CO2 incubator for 24 h before the experiment. The adherent cells were washed once in Opti-MEM (Gibco BRL) prior to transfection. Washed medium was removed and replaced with 0.5 ml of Opti-MEM to which 167 μl of lipopolyplex was added ([…]). Individual lipopolyplex preparations were tested in triplicate wells. Cells were incubated for a further 4 h at 37° C. in 5% CO2 before removal of the medium and non-cell associated lipopolyplex and addition of 1 ml of fresh medium (Dulbecco's modified Eagle's medium (DMEM), plus glutamate, asparagine, adenosine, guanosine, cytidine, uridine, thymidine and 10% FCS.
# Cells were cultured for a further 72 h before harvesting, the medium was aspirated and the cells washed twice with 1 ml phosphate buffered saline. Cells were lysed by the addition of 200 μl per well of lysis buffer (Promega) and the plate was agitated on an orbital mixer for 15 min. The lysates were transferred to individual Eppendorf tubes, taking care to remove attached cells by scraping with a pipette tip prior to removal. Cell debris was removed by centrifugation in a microfuge for 5 min followed by transfer of the supernatant into clean Eppendorf tubes.
# Levels of β-galactosidase (β-gal) activity were determined using a colorimetric enzyme assay kit (Promega) as follows: 50 μl of cell extract was incubated with the kit substrate, O-nitrophenyl-β-D-galactopyranoside in buffer solution for 30 min at 37° C. The reaction was stopped by the addition of 150 μl of 1M sodium carbonate and the absorbance measured at 420 nm (Multiskan Ascent plate reader, Labsystems). Absorbance values were interpolated from a calibration curve to give enzyme activity in mU per ml. In turn these values were normalised in reference to lysate protein concentration as determined by a BCA assay kit (Pierce) and expressed as mU of β-gal per mg of protein.
# An anionic liposome composition was evaluated comprising DOPC and CHEMS in the presence and absence of Compound 2. […]
Structure (SMILES),melting point [°C],"reporter gene expression ([1]; Example 22, FIG. 1, cholesterol/oleic acid totally substituted with Compound 2 at 40 mol %)","reporter gene expression levels ([1]; Example 22, FIG. 1, higher lipid to DNA ratios (above 2:1), exception: 5:1 lipid to DNA with 20 mol % Compound 2)","reporter gene expression ([1]; Example 22, FIG. 1, lipid to DNA ratio 2:1, Compound 2 content 1 to 40 mol %)","expression of β-galactosidase ([1]; Example 22, FIG. 1, lipopolyplexes with cholesterol, oleic acid and DOPC, 1 mol % Compound 2)","levels of β-galactosidase expression ([1]; Example 23, FIG. 2, DOPC/CHEMS lipopolyplexes, 20 mol % Compound 2, lipid to DNA ratios 0.6:1 to 5.5:1)",transfection enhancement via endosomolytic properties ([1]; overall conclusion from Examples 22 and 23)
CCCCCCCCCCCCCCCCCCOC[C@@H](COP(=O)(OCCCCCCCCCCCc1cc(CC(C)(C)C(=O)OC)cc(CC(C)(C)C(=O)OC)c1)Oc1ccccc1Cl)OCCCCCCCCCCCCCCCCCC (stereo partly shown),27 to 27.5,–,–,–,–,–,–
"CC(C)CCCC(C)C1CCC2C3CC=C4C[C@H](OP(=O)(O)OCCCCCCCCCCCc5cc(CC(C)(C)C(=O)O)cc(CC(C)(C)C(=O)O)c5)CC[C@]4(C)C3CC[C@]12C (stereo partly drawn) [Compound 2, 3,3′-(5-(11-(((((3R,10R,13R)-10,13-Dimethyl-17-(6-methylheptan-2-yl)-2,3,4,7,8,9,10,11,12,13,14,15,16,17-tetradecahydro-1H-cyclopenta[a]phenanthren-3-yl)oxy)(hydroxy)phosphoryl)oxy)undecyl)-1,3-phenylene)bis(2,2-dimethylpropanoic acid), ammonium salt]",–,highest,not significant,increased with increasing content of Compound 2,little or no expression,"high, significant levels",confirming the effectiveness of Compound 2 as a transfection enhancing agent
